Values quoted from earlier work, collected in patent US20080161402A1, “Targeting the Reverse Mode of the Na+/Ca2+ Exchanger For the Treatment of Neurodegenerative Conditions” (ALLERGAN, INC., priority 2004, published 2008).

Test system: Na+/Ca2+ exchanger
Settings: variety of cell types including neurons; reverse vs forward mode

In the case of CS(=O)(=O)O.N=C(N)SCCc1ccc(OCc2ccc([N+](=O)[O-])cc2)cc1 [KB-R743, 2-[2-[4-(4-nitorbenzyloxy)phenyl]ethyl]isothiourea methanesulfonte], the “mode selectivity of Na+/Ca2+ exchanger block” value is given as “preferentially block the reverse mode”.
